One may read the pIC50 as −log10 of the IC50, conventionally taken in molar units.

In experiment [1] the target is T1, human androgen receptor (hAR) (Homo sapiens, UniProt P10275).
T1 construct: made in house; host or cells: baculovirus/Sf9 insect cells (crude extract)
T1 sequence (P10275 1-920): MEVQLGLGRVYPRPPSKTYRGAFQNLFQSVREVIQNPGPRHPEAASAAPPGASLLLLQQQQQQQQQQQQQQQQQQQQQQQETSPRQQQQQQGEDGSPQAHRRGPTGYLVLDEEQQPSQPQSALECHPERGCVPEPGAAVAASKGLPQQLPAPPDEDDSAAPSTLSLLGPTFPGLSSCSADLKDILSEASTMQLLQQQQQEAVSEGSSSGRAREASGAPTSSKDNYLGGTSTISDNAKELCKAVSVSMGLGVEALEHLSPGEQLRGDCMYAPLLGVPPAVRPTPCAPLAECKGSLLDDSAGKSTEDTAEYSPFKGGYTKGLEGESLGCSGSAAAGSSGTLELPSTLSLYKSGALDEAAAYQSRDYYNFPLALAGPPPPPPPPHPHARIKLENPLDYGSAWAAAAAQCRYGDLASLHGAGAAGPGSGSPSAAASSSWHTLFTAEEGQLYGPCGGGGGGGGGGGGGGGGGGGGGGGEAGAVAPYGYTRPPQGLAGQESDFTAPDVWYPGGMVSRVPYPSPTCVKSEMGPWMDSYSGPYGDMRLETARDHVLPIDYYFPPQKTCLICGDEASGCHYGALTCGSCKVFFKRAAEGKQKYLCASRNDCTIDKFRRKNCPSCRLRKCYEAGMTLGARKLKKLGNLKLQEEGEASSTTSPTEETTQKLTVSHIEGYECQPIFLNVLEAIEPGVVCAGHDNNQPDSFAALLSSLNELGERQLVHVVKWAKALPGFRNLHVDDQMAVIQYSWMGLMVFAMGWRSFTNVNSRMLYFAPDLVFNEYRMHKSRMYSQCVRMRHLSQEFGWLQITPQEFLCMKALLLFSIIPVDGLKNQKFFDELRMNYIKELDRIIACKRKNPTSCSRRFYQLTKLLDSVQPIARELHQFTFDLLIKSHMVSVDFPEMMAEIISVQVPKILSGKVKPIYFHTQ
The experiment is described as follows: Competitive binding analysis on baculovirus/Sf9 generated hAR extracts with 3H-DHT tracer. The settings on record: hAR extract, 1 nM 3H-DHT, one hour at 4° C; mean of multiple tests; read-out: AR Binding IC50. On the procedure:
The compounds of Formula I have affinity for the androgen receptor. […] The description below describes how the assay was carried out.
Competitive binding analysis was performed on baculovirus/Sf9 generated hAR extracts in the presence or absence of different concentrations of test agent and a fixed concentration of ^3H-dihydrotestosterone (^3H-DHT) as tracer. This binding assay method is a modification of a protocol previously described (Liao S., et. al. J. Steroid Biochem. 20:11-17 1984). Briefly, progressively decreasing concentrations of compounds are incubated in the presence of hAR extract (Chang et al. P.N.A.S. Vol. 89, pp. […], 1992), hydroxylapatite, and 1 nM^3H-DHT for one hour at 4° C. Subsequently, the binding reactions are washed three times to completely remove excess unbound ^3H-DHT. hAR bound ^3H-DHT levels are determined in the presence of compounds (=i.e competitive binding) and compared to levels bound when no competitor is present (=i.e. maximum binding). Compound binding affinity to the hAR is expressed as the concentration of compound at which one half of the maximum binding is inhibited. Table II below provides the results that were obtained for selected compounds (reported data is the mean of multiple tests as shown below)

Experiment [2] addresses T2, androgen receptor (Homo sapiens, UniProt P10275).
T2 sequence (P10275 1-920 Q868H): T1 sequence (P10275 1-920) with Q868H
The experiment is described as follows: AR antagonist cell assay (MDA-MB453-MMTV clone 54-19 luciferase reporter, 100 pM DHT). It is filed as cell-based. On the procedure:
The compounds ability to antagonize the effects of androgen on the androgen receptor were determined in a whole cell assay as described immediately below.
Experimental Procedure for AR Antagonist Cell Assay
This cell line is a stable transfected cell line with MDA-MB453 cell background (a human breast tumor cell line expressing androgen receptor). A MMTV minimal promoter containing ARE was first cloned in front of a firefly luciferase reporter gene. Then the cascade was cloned into transfection vector pUV120puro. […] Puromycin resistant stable cell line was selected. Cell Culture Media and Reagents:
Plating medium: DMEM (phenol red free), 10% charcoal treated HyClone serum, 1% L-glutamine
Assay medium: DMEM (phenol red free), 1% charcoal treated HyClone serum, 1% L-glutamine, and 1% penicillin/streptomycin
• 1. Cells are maintained in culture medium, splitting cells when they reach 80-90% confluence • 2. To test compounds, 10,000 cells/well are plated to opaque 96 cell culture plate in 100 ul/well plating medium, culture for overnight at 37° C. in cell culture incubator • 3. […] Add 10 ul/well freshly prepared DHT (final concentration at 100 pM) to each well, incubate at 37° C. for 17 hr (overnight) • 5.
The results are reported as the mean of multiple tests as described below (the numbers of tests are indicated in the footnote). N.D. denotes that the compound was not tested.
For orientation: In a reporter assay the amount or activity of a reporter protein is the signal.

Setting [3] is: MDA-MB453-MMTV clone 54-19, inhibition of 100 pM DHT induction, 17 hr; mean of multiple tests; read-out: AR Cell IC50.

Where a chain is given by its changes, count along the chain named. pIC50: −log10 of the molar value. Read-outs that look alike come from different tables or passages of the source. A value given as a limit tells only on which side of the number the result lay.

As to `CC(C)CC(Oc1ccc(C#N)c(C(F)(F)F)c1)C(=O)N[C@H](C)c1ccc(O)cc1` (stereo in doubt) [Example 117, 2-(4-Cyano-3-trifluoromethyl-phenoxy)-4-methyl-pentanoic acid [1-(4-hydroxy-phenyl)-ethyl]-amide], the pIC50 in experiment [1] was 6.94; in experiment [2] (read-out: AR Cell IC50; MDA-MB453-MMTV clone 54-19, inhibition of 100 pM DHT induction, 17 hr; mean of multiple tests), 7.72.
For `CCCC(Oc1ccc(C#N)c(C(F)(F)F)c1)C(=O)N[C@@H](C)c1ccc(O)cc1` (stereo in doubt) [Example 118, 2-(4-Cyano-3-trifluoromethyl-phenoxy)-pentanoic acid [1-(4-hydroxy-phenyl)-ethyl]-amide], the pIC50 in experiment [1] was 6.00; in experiment [2] (setting [3]), 6.23.
The like results for `CCCC(Oc1ccc(C#N)c(C(F)(F)F)c1)C(=O)N[C@H](C)c1ccc(O)cc1` (stereo in doubt) [Example 119, 2-(4-Cyano-3-trifluoromethyl-phenoxy)-pentanoic acid [1-(4-hydroxy-phenyl)-ethyl]-amide] were, in that order, 7.07 and 6.93.
The like results for `CC(C)CC(Oc1ccc(C#N)c(C(F)(F)F)c1)C(=O)N[C@@H](C)c1ccc(O)cc1` (stereo in doubt) [Example 120, 2-(4-Cyano-3-trifluoromethyl-phenoxy)-4-methyl-pentanoic acid [1-(4-hydroxy-phenyl)-ethyl]-amide] were, in that order, 7.01 and 7.36.
The like results for `COc1ccc([C@H](C)NC(=O)C(CC(C)C)Oc2ccc(C#N)c(C(F)(F)F)c2)cc1` (stereo in doubt) [Example 121, 2-(4-Cyano-3-trifluoromethyl-phenoxy)-4-methyl-pentanoic acid [1-(4-methoxy-phenyl)-ethyl]-amide] were, in that order, 6.84 and 6.80.
Take `CCCC(Oc1ccc(C#N)c(C(F)(F)F)c1)C(=O)N[C@H](C)c1ccc(OC)cc1` (stereo in doubt) [Example 123, 2-(4-Cyano-3-trifluoromethyl-phenoxy)-pentanoic acid [1-(4-methoxy-phenyl)-ethyl]-amide]: the pIC50 in experiment [1] was 6.19; in experiment [2] (setting [3]), 6.17.
The corresponding values for `CC(C)CC(Oc1ccc(C#N)c(C(F)(F)F)c1)C(=O)NC(C)C` (stereo not shown) [Example 2, 2-(4-Cyano-3-trifluoromethyl-phenoxy)-4-methyl-pentanoic acid isopropylamide] are 7.19 and 6.85.
The corresponding values for `CCCC(Oc1ccc(C#N)c(C(F)(F)F)c1)C(=O)NCC` (stereo not shown) [Example 5, 2-(4-Cyano-3-trifluoromethyl-phenoxy)-pentanoic acid ethylamide] are 6.56 and below 6.00.
In the case of `CC(C)CC(Oc1ccc(C#N)c(C(F)(F)F)c1)C(=O)NCC1CC1` (stereo not shown) [Example 7, 2-(4-Cyano-3-trifluoromethyl-phenoxy)-4-methyl-pentanoic acid cyclopropylmethyl-amide], the pIC50 in experiment [1] was 6.97; in experiment [2] (setting [3]), 6.18.
The like results for `CC(C)CNC(=O)C(CC(C)C)Oc1ccc(C#N)c(C(F)(F)F)c1` (stereo not shown) [Example 8, 2-(4-Cyano-3-trifluoromethyl-phenoxy)-4-methyl-pentanoic acid isobutyl-amide] were, in that order, 7.24 and 6.27.
The like results for `COc1ccc(CCNC(=O)C(CC(C)C)Oc2ccc(C#N)c(C(F)(F)F)c2)cc1` (stereo not shown) [Example 9, 2-(4-Cyano-3-trifluoromethyl-phenoxy)-4-methyl-pentanoic acid [2-(4-methoxyphenyl)-ethyl]-amide] were, in that order, 6.79 and below 6.00.
The corresponding values for `CC(C)CC(Oc1ccc(C#N)c(C(F)(F)F)c1)C(=O)NCCOc1ccccc1` (stereo not shown) [Example 10, 2-(4-Cyano-3-trifluoromethyl-phenoxy)-4-methyl-pentanoic acid (2-phenoxyethyl)-amide] are 7.04 and below 6.00.
Consider `CC(C)CC(Oc1ccc(C#N)c(C(F)(F)F)c1)C(=O)NCc1ccco1` (stereo not shown) [Example 11, 2-(4-Cyano-3-trifluoromethyl-phenoxy)-4-methyl-pentanoic acid (furan-2-yl-methyl)-amide], for which the pIC50 is 6.76 in experiment [1] and below 6.00 in experiment [2] (setting [3]).
For the molecule `CC(C)CC(Oc1ccc(C#N)c(C(F)(F)F)c1)C(=O)NCc1cccs1` (stereo not shown) [Example 12, 2-(4-Cyano-3-trifluoromethyl-phenoxy)-4-methyl-pentanoic acid (thiophen-2-yl-methyl)-amide], the pIC50 was 7.07 in experiment [1] and below 6.00 in experiment [2] (setting [3]).
The corresponding values for `CC(C)CC(Oc1ccc(C#N)c(C(F)(F)F)c1)C(=O)NC(C)c1cccs1` (stereo not shown) [Example 13, 2-(4-Cyano-3-trifluoromethyl-phenoxy)-4-methyl-pentanoic acid (1-thiophen-2-ylethyl)-amide] are 6.62 and 6.40.
The like results for `CC(C)CC(Oc1ccc(C#N)c(C(F)(F)F)c1)C(=O)NC(C)c1cccnc1` (stereo not shown) [Example 15, 2-(4-Cyano-3-trifluoromethyl-phenoxy)-4-methyl-pentanoic acid (1-pyridin-3-ylethyl)-amide] were, in that order, 6.51 and below 6.00.
The like results for `CCCC(Oc1ccc(C#N)c(C(F)(F)F)c1)C(=O)NC(C)Cc1ccsc1` (stereo not shown) [Example 18, 2-(4-Cyano-3-trifluoromethyl-phenoxy)-pentanoic acid (1-methyl-2-thiophen-3-ylethyl)-amide] were, in that order, 6.65 and 6.09.

For the origin of these results see patent US7507860B2 (Pfizer Inc., priority 2004, dated 2009).
